The values that follow come from Sander's compilation of Henry's law constants (doi:10.1016/0304-3894(88)85057-x).

SMILES strings stand for the structures.

The series in a line: Henry solubility constant Hcp at 298.15 K (mol/(m3 Pa)). The following applies: reference: Ashworth et al. (1988).
In the case of `Cc1ccc(O)c(C)c1` [1-hydroxy-2,4-dimethylbenzene], the “Henry solubility constant Hcp” value came to 0.0019.
For `Clc1ccc(Cl)cc1` [1,4-dichlorobenzene], the “Henry solubility constant Hcp” value came out at 0.0031.
Consider `C1CCCCC1` [cyclohexane], for which the “Henry solubility constant Hcp” value is 5.5e-05.
The value for `C=C(Cl)Cl` [1,1-dichloroethene] was 0.00037; that for `c1ccccc1` [benzene] was 0.0018; that for `COCCO` [2-methoxyethanol] was 0.00022.
The value for `ClCC(Cl)Cl` [1,1,2-trichloroethane] was 0.01; that for `ClC(Cl)C(Cl)Cl` [1,1,2,2-tetrachloroethane] was 0.022; that for `Cc1ccccc1` [methylbenzene] was 0.0015.
The value for `CC(Cl)(Cl)Cl` [1,1,1-trichloroethane] was 0.00057.
For `ClCCl` [dichloromethane], the “Henry solubility constant Hcp” value came out at 0.0034.
Under `CC(C)c1ccccc1` [(2-propyl)-benzene] stands 0.0016.
The value for `c1ccc2c(c1)CCCC2` [1,2,3,4-tetrahydronaphthalene] was 0.0051; that for `Clc1cccc(Cl)c1` [1,3-dichlorobenzene] was 0.003.
With `C1CCC2CCCCC2C1` (centres undefined) [decahydronaphthalene], the “Henry solubility constant Hcp” value stood at 7.2e-05.
On to `ClC(Cl)=C(Cl)Cl` [tetrachloroethene], for which the “Henry solubility constant Hcp” value was 0.00054.
Regarding `CCCC(C)C` [2-methylpentane], the “Henry solubility constant Hcp” value came to 1.3e-05.
Under `Clc1ccccc1` [chlorobenzene] stands 0.0025; under `C=CCl` [chloroethene], 0.0004; under `ClC=C(Cl)Cl` [trichloroethene], 0.00095.
With `Cc1cc(C)cc(C)c1` [1,3,5-trimethylbenzene], the “Henry solubility constant Hcp” value was determined as 0.0014.
Under `CCc1ccccc1` [ethylbenzene] stands 0.0012.
Regarding `ClC(Cl)(Cl)Cl` [tetrachloromethane], the “Henry solubility constant Hcp” value turned out to be 0.00033.
Under `CCCCCC` [hexane] stands 9.9e-06; under `ClC(Cl)(Cl)C(Cl)(Cl)Cl` [hexachloroethane], 0.0012; under `ClC(Br)Br` [dibromochloromethane], 0.0085.
Under `Cc1ccc(C)cc1` [1,4-dimethylbenzene] stands 0.0013.
The value for `CCCl` [chloroethane] was 0.00079; that for `CCCc1ccccc1` [propylbenzene] was 0.0009.
As to `CC(Cl)CCl` (centres undefined) [1,2-dichloropropane], the “Henry solubility constant Hcp” value turned out to be 0.0038.
Turning to `Cc1cccc(C)c1` [1,3-dimethylbenzene], the “Henry solubility constant Hcp” value stood at 0.0013.
Regarding `CCCCCCCCC` [nonane], the “Henry solubility constant Hcp” value was 2.3e-05.
Consider `Cc1ccccc1C` [1,2-dimethylbenzene], for which the “Henry solubility constant Hcp” value turned out to be 0.0019.
Under `CC(=O)CC(C)C` [4-methyl-2-pentanone] stands 0.022.
